Data as given in patent US11905230B2, “Phenoxyacetic acid derivatives, preparation method thereof and use thereof as medicament” (CHINA PHARMACEUTICAL UNIVERSITY, priority 2017, dated 2024).

Assays:
[1] = Evaluation of hepatotoxicity: serum ALT, AST and TBIL after 4 weeks of dosing; type: in vivo; settings: for ALT (IU/L) / AST (IU/L) / TBIL (IU/L): serum, once a day for consecutive 4 weeks, x ± SD, n = 6
Method: Experimental example 3 Evaluation of hepatotoxicity of the compounds of the present invention:
The test compounds were administered once a day for consecutive 4 weeks, blood was taken, and the contents of alanine aminotransferase (ALT), aspartate aminotransferase (AST), and total bilirubin (TBIL) were measured.

[2] = biological target: hGPR40 receptor (Homo sapiens (Human), UniProt O14842); test: agonistic activity on hGPR40-CHO stably transfected cells (Fluo-4 / FLIPR); type: cell-based; settings: for activation at 0.1 µM: 100 nM, relative to linoleic acid well; for EC50: mean ± SD of three determinations
Method: Experimental example 1 The agonistic activity of the compounds of the present invention on hGPR40-CHO stably transfected cells
The present invention used the following method to determine the GPR40 agonistic activity of the compounds of the invention:
hGPR40-CHO stably transfected cells were seeded into a 96-well plate at a density of 3×10^4/well, and incubated overnight in a 37° C., 5% CO2 cell incubator; the medium was discarded, 100 μl of HBSS was added to each well, and 100 μl of Fluo-4 dye solution containing Probenecid was added and incubated at 37° C. for 90 min. After the incubation, the Fluo-4 dye solution was sucked out, 100 μl of HBSS buffer was added, and the dye was washed away; 100 μl of HBSS containing Probenecid was added to each well, and incubated at 37° C. for 10 min; different concentrations of drugs were added to each well of the 96-well plate and FLIPR (Molecular Devices) was used for readings according to the parameter setting table. The experimental results were analyzed.

[3] = test system: normal mice; test: Oral glucose tolerance test (OGTT) in normal mice; type: in vivo, Kunming mice; settings: for effect on oral glucose tolerance in mice (in words): OGTT in normal mice, 20 mg/kg; for blood glucose level at 15 min / blood glucose level at 0 min / blood glucose level at 30 min / blood glucose level at 60 min / blood glucose level at 120 min: OGTT, 20 mg/kg by gavage, n = 8, in mmol/L (unit assumed); for blood glucose level at 15 min: 15 min after glucose load; for blood glucose level at 0 min: 30 min after dosing, before glucose load; for blood glucose level at 30 min: 30 min after glucose load; for blood glucose level at 60 min: 60 min after glucose load; for blood glucose level at 120 min: 120 min after glucose load
Method: Experimental example 2 In vivo hypoglycemic activity of the compounds of the present invention can be determined by using an assay system as described below:
The mice were fasted for 12 hours before experiment and water was taken freely, each group was administrated by gavage, blood was taken from the tail, and the blood glucose level was measured (recorded as −30 min).

[4] = biological target: PPARγ (Homo sapiens (Human), UniProt P37231); test: selective experiment of PPARγ agonism; type: cell-based; settings: selectivity experiment; read-out: EC K (EC50) of PPARγ agonism
[5] = biological target: GPR120 (Homo sapiens (Human), UniProt Q5NUL3); test: selective experiment of GPR120 agonism; type: cell-based; settings: selectivity experiment; read-out: EC K (EC50) of GPR120 agonism
Chain of GPR120 (Q5NUL3 whole entry, species assumed): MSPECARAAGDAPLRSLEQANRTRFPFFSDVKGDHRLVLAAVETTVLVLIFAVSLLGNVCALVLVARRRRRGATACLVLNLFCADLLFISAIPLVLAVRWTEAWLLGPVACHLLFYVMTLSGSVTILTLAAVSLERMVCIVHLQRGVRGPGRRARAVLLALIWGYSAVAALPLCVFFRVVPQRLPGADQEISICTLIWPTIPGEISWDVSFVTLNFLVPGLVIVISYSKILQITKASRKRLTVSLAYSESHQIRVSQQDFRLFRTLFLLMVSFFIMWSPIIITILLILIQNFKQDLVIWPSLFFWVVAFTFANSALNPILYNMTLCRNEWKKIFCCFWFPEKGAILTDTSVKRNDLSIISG

Chain of hGPR40 receptor (O14842 whole entry): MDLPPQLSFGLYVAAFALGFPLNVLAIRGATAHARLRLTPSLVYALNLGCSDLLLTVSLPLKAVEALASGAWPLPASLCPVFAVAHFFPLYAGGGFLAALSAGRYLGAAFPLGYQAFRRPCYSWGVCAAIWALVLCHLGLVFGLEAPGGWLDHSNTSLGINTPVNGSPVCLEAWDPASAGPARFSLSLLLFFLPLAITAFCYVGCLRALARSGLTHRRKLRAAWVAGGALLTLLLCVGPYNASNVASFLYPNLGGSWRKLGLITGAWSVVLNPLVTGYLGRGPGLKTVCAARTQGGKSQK
Chain of PPARγ (P37231 whole entry, species assumed): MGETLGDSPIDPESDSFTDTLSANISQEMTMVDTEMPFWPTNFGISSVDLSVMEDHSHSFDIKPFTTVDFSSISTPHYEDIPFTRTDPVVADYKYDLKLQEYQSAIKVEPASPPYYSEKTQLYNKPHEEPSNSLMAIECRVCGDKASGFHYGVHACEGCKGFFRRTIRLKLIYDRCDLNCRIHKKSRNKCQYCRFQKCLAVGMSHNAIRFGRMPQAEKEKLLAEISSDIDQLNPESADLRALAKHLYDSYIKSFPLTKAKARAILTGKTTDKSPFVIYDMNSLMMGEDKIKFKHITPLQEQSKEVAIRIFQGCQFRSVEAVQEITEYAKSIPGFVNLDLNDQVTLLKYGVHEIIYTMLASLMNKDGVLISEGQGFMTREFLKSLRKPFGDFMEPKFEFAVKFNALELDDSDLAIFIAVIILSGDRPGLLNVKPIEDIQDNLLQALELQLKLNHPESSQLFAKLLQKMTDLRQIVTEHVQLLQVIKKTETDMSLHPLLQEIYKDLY

SMILES | ALT (IU/L) [1] | AST (IU/L) [1] | TBIL (IU/L) [1] | activation at 0.1 µM [2] | EC50 [2] | melting point | effect on oral glucose tolerance in mice (in words) [3] | blood glucose level at 15 min [3] | blood glucose level at 0 min [3] | blood glucose level at 30 min [3] | blood glucose level at 60 min [3] | blood glucose level at 120 min [3] | AST, ALT and TBIL compared with STZ (blank) group (in words) ([1]; 4 weeks of dosing) | EC50 [4] | EC50 [5]
O=C(O)COc1ccc(NCc2cccc(-c3ccccc3Cl)c2)cc1 [Compound I-24, 2-(4-((2′-chloro-[1,1′-biphenyl]-3-methylene)amino)phenoxy)acetic acid] | 52.68 ± 5.7 IU/L | 116.78 ± 12.4 IU/L | 2.56 ± 0.2 IU/L | 80% | 0.0186 ± 0.0027 µM | 124 to 126 °C | significantly improve oral glucose tolerance | 9.22 ± 0.57 | 4.39 ± 0.34 | 8.04 ± 0.49 | 5.29 ± 0.34 | 4.33 ± 0.33 | – | – | –
Cc1ccccc1-c1cccc(CNc2ccc(OCC(=O)O)c(F)c2)c1 [Compound I-3, 2-(4-((2′-methyl-[1,1′-biphenyl]-3-methylene)amino)-2-fluorophenoxy)acetic acid] | 51.23 ± 5.6 IU/L | 103.27 ± 9.98 IU/L | 2.55 ± 0.4 IU/L | 87% | 0.0048 ± 0.0035 µM | – | significantly improve oral glucose tolerance | 7.13 ± 0.29 | 4.61 ± 0.63 | 6.94 ± 0.38 | 5.06 ± 0.23 | 4.38 ± 0.29 | equivalent to the blank group | 83 µM | 54 µM
